Laboratory results: patent US20220339214A1, “KIRIN FRUIT FERMENTATION AND METHODS FOR IMPROVING METABOLISM BY USING THE SAME” (TCI CO., LTD., priority 2021, published 2022)

Key:
mouse myoblasts C2C12 [1] = assay: Activity of mitochondria in skeletal muscle cells affected by active substances (fluorescence picture); type: cell-based; conditions: 100 nM, 24 h, compared with blank group
Procedure: The experimental medium was removed from the culture plate, and the culture plate was washed with 1 mL of 1×PBS for two times. […] was added into each well to react for 5 min in the dark. After the reaction was completed, a cell medium was added to stop the reaction. The cells and cell medium in each well were collected in a 1.5 mL centrifuge tube, and the centrifuge tube containing the cells and cell medium was centrifuged at 400×g for 5 min. After the centrifugation, a supernatant was removed. The cells were washed with 1×DPBS, and then the centrifuge tube containing the cells was centrifuged again at 400×g for 5 min. After the centrifugation again, a supernatant was removed from each centrifuge tube, and 100 μL of JC-1 dye was added into each centrifuge tube and left to stand for 15 min in the dark. After 15 min, each centrifuge tube was centrifuged at 400×g for 5 min. […] Finally, the fluorescence signal of the to-be-tested cell solution in each well was measured by the flow cytometry (excitation light: 488 nip and scattered light: 527 nm & 590 nm), and the membrane potential of mitochondria was calculated, to analyze the activity of mitochondria. […] Finally, a picture of the fluorescence signal of the to-be-tested cell solution was taken by a. camera to observe the activity of mitochondria.

mouse myoblasts C2C12 [2] = assay: Proliferation of skeletal muscle cells (Click-iT Plus EdU, flow cytometry); type: cell-based; conditions: 24 h
Source text: Experimental cell strain: mouse myoblasts C2C12 (hereinafter referred to as C2C12 cells) of the C2C12 cell strain (ATCC CRL-1772™) purchased from the American Type Culture Collection (ATCC®).
Culture medium: Dulbecco's modified Eagle's medium, purchased from Gibco, US, Gat.11965-092. 10% of fetal bovine serum (FBS), purchased from Gibco, US, Gat.10437-028. 1% of antibiotic, purchased from Gibco, US, Gat.15240-062.
Reagents: 10×DPBS buffer (purchased from Gibco, Gat 14200-075), trypan blue dead cell dye (purchased from Lonza, Cat 17-942E), trypsin-EDTA (purchased from Gibco, Cat. 15400-054), and cell proliferation Click-iT™ Plus EdU kit (Invitrogen; Cat. C10632).
First, 1×10^5 cells were inoculated into each well of a 6-well culture plate to culture at 37° C. for 24 h. The cultured cells were divided into three groups: an experimental group, a blank group, and a control group.
Blank group: only a culture medium was added to culture at 37° C. for 24 h.
Control group: 10% of PBS was added to culture at 37° C. for 24 h, which was used as a positive control group. […]
Next, the specific reagent EdU from the cell proliferation kit was added to culture for 2 h. […] Finally, the fluorescence signal of the to-be-tested cell solution in each well was measured by the flow cytometry (under 488 nm of excitation light and 530/30 nm of scattered light), and the quantity of cells was calculated. […]

O[C@H]1[C@H](O)[C@@H](O)[C@H](O)[C@@H](O)[C@H]1O [TCI-GHU-01, myo-inositol]
activity of mitochondria in skeletal muscle cells (small light spots around the nuclei) (mouse myoblasts C2C12 [1]): higher than that of the blank group
increase of quantity of skeletal muscle cells (mouse myoblasts C2C12 [2]; 100 nM, vs blank group): 48.2%
quantity of skeletal muscle cells relative to the blank group (mouse myoblasts C2C12 [2]; TCI-GHU-01 100 nM, positive control 10%, blank group regarded as 100%): 148.2%
